Measured values: EP2662081A1, “Therapeutic use of indole-dihydro-imidazole derivatives” (NOSCIRA, S.A., priority 2012, dated 2013)

Tests used:
[1] = target: T1, human recombinant Cdk5/p35 heterodimer (Homo sapiens, UniProt Q00535); experiment: Cdk5 assay (Z'-LYTE FRET enzymatic activity); type: biochemical; details: 10 nM enzyme, 12.5 µM ATP, 2 µM Ser/Thr 12 peptide, 60 min at room temperature; concentration in M units; read-out: Cdk5 inhibition pEC50 average (converted)
T1 construct: purchased Invitrogen (Life Technologies)
T1 sequence (Q00535 whole entry): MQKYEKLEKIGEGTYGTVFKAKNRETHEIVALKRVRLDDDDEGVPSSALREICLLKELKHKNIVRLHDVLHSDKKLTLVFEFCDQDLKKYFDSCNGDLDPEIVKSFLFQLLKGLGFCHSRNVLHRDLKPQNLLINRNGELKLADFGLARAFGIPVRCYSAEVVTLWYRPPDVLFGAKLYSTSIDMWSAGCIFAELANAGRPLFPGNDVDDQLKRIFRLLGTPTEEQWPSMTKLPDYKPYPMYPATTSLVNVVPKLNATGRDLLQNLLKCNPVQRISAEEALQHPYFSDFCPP
T1 sequence (Q15078 whole entry partner): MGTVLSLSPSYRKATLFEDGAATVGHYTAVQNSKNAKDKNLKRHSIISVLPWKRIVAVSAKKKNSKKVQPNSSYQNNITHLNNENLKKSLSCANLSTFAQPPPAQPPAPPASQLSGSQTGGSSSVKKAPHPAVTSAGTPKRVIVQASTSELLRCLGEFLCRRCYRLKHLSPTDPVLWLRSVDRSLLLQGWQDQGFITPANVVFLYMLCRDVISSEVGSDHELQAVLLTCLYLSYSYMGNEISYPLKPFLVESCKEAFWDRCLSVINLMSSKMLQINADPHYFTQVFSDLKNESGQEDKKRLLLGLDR
Description: The enzymatic activity of Cdk5 was determined with a commercial system based on the Z'-LYTE® technology, available from Life Technologies (Carlsbad, CA, USA), using human recombinant Cdk5/p35 heterodimer, also available from Invitrogen as the enzyme source. This technology utilizes the fluorescence resonance energy transfer ("FRET") process between fluorescein and coumarin. The assay principle is based on the differential sensitivity of phosphorylated and non-phosphorylated peptide to proteolytic cleavage, which precludes the energy transfer process between the two fluorophores attached to both sides of the cleavage site. […] The assay is performed in 384-well black plates, in a final volume of 10 µl, with 10 nM enzyme concentration, in 50 mM Hepes pH 7.5, 50 mM MgCl2, 5 mM EGTA and 0.05% Brij-35, using 12.5 µM ATP and 2 µM substrate peptide. The latter is a synthetic peptide provided by Invitrogen, under the commercial name "Ser/Thr 12 peptide", and it is based upon the sequence of Cdk7, containing Ser-164 and a (Ser/Thr)-Pro-X-(Lys/Arg) consensus sequence, wherein X is any residue. The peptide is labeled at both ends with fluorescein and coumarin. The assay is carried out in the presence of different concentrations of the tested compound, at a final 1% (v/v) DMSO concentration. After a 60 min incubation, at room temperature, 5 µl of a commercial protease solution (sold by the same vendor in the assay kit) is added and a subsequent 1h incubation at room temperature is performed, before adding 5 µl of a suitable "stop solution", also provided by the vendor in the kit. After that, fluorescence intensity is recorded, monitoring emission at both 445 and 520 nm, upon excitation at 400 nm. An emission ratio is finally calculated, using the quotient among the emission at 445 nm divided by that at 520 nm.
The emission ratio of each tested sample is normalized to that of the control wells, so that for every compound concentration the percentage of inhibition is calculated by using the following equation: % Inhibition = 100⋅(E-S)/(E-B) [formula] where "S" is the emission from the wells with the tested sample, "E" is the average emission from control wells with full enzyme activity and "B" is the average emission from wells with full enzyme inhibition. Inhibition values obtained for every compound concentration are finally used to calculate the pEC50 of the tested compound, this parameter being the negative value of the logarithm of the compound concentration, in M units, causing 50% of its maximum effect (i.e., the higher the pEC50 value the higher the potency of the compound). For that purpose the data were fitted to the following equation using the nonlinear regression function of GraphPad™ Prism 5.0 (GraphPad Software Inc.): % Inhibition = L + (H-L)/(1 + 10^(((logC+pEC50))^N)) [formula] where "L" is the lower asymptote of the theoretical sigmoidal curve, "H" is the higher asymptote, "C" is the concentration of compound in M units and "N" is the Hill coefficient.

[2] = target: T2, human recombinant GSK3β (N-terminal 6His-tagged recombinant enzyme with an H350L mutation) (Homo sapiens, UniProt P49841); experiment: GSK-3 assay (Z'-LYTE FRET enzymatic activity); type: biochemical; details: 2 nM enzyme, 12.5 µM ATP, 2 µM Ser/Thr 9 peptide, 60 min at room temperature; concentration in M units; read-out: GSK-3 inhibition pEC50 average (converted)
T2 construct: 6His (N); purchased Millipore (Billerica, MA, USA)
T2 sequence (P49841 whole entry, stated change not applied): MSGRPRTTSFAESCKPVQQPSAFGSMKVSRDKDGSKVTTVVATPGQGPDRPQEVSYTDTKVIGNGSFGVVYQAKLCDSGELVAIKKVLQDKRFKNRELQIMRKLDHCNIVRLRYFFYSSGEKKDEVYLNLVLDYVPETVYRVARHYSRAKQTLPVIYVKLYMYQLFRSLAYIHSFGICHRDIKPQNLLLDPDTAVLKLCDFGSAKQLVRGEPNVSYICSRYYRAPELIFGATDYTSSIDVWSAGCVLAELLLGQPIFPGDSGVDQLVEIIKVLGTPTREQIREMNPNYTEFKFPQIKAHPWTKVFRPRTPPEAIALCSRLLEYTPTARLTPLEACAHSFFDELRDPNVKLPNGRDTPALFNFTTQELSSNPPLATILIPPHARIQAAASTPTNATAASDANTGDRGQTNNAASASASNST
Description: The enzymatic activity of GSK3β was determined with a commercial system based on the Z'-LYTE® technology, available from Life Technologies (Carlsbad, CA, USA), using human recombinant GSK3β (N-terminal 6His-tagged recombinant enzyme with an H350L mutation) from Millipore (Billerica, MA, USA) as the enzyme source. This technology utilizes the fluorescence resonance energy transfer ("FRET") process between fluorescein and coumarin. The assay principle is based on the differential sensitivity of phosphorylated and non-phosphorylated peptide to proteolytic cleavage, which precludes the energy transfer process between the two fluorophores attached to both sides of the cleavage site. […] The assay is performed in 384-well black plates, in a final volume of 10 µl, with 2 nM enzyme concentration in 50 mM Hepes pH 7.5, 50 mM MgCl2, 5 mM EGTA and 0.05% Brij-35, using 12.5 µM ATP and 2 µM substrate peptide. The latter is a synthetic peptide, provided by Invitrogen under the commercial name "Ser/Thr 9 peptide", and it is based upon the sequence of a GSK3β substrate protein (glycogen synthase I) containing Ser-641. The peptide is labeled at both ends with fluorescein and coumarin. The assay is carried out in the presence of different concentrations of the tested compound, at a final 1 % (v/v) DMSO concentration. After a 60 min incubation at room temperature, 5 µl of a commercial protease solution (sold by the same vendor in the assay kit) is added and a subsequent 1h incubation at room temperature is performed, before adding 5 µl of a suitable "stop solution", also provided by the vendor in the kit. After that, fluorescence intensity is recorded, monitoring emission at both 445 and 520 nm, upon excitation at 400 nm. An emission ratio is finally calculated, using the quotient among the emission at 445 nm divided by that at 520 nm.
The emission ratios for each concentration of compound are finally used to calculate the pEC50 value, according to the procedure described above for Cdk5.

| SMILES | EC50 [1] | EC50 [2] |
| --- | --- | --- |
| CN1C(=N)NCC1c1c(C(=O)O)[nH]c2ccc(Br)cc12 (centres unmarked) [Compound 1] | 1.1 µM | 35.5 µM |
| CN1C(=N)NCC1c1c(C(=O)O)[nH]c2cc(O)c(Br)cc12 (centres unmarked) [Compound 3] | 0.0955 µM | 11.2 µM |
| CN1C(=N)N(C)C(c2c(C(=O)O)[nH]c3ccc(Br)cc23)C1O (centres unmarked) [Compound 5] | 3.09 µM | 97.7 µM |
| CN1CC(c2c(C(=O)O)[nH]c3ccc(Br)cc23)N(C)C1=N (centres unmarked) [Compound 2] | 2.82 µM | 74.1 µM |
| CN1C(=N)N(C)C(c2c(C(=O)O)[nH]c3cc(O)c(Br)cc23)C1O (centres unmarked) [Compound 6] | 0.049 µM | 8.32 µM |
| CN1C(N)=NCC1c1c(C(=O)O)[nH]c2ccccc12 (centres unmarked) [Compound 7] | 0.933 µM | 42.7 µM |
| CN1CC(c2c(C(=O)O)[nH]c3cc(O)c(Br)cc23)N(C)C1=N (centres unmarked) [Compound 4] | 0.0741 µM | 15.5 µM |
